For series [1], the system named is rat sandwich-cultured hepatocytes. The series can be described thus: in vitro. In kind it is in vitro ADME. How it is done:
Sandwich-cultured rat hepatocytes (SCHs) were established according to previously described methods with minor modifications. Primary rat hepatocytes were isolated from male Sprague Dawley® (SD) rats (220-270 g) using a collagenase perfusion as described previously and plated at a density of 7.4×10^5 cells/2 ml/well onto six-well BioCoat plates. Approximately 24 hours later, hepatocytes were overlaid with 2 ml of 0.25 mg/ml BD Matrigel basement membrane matrix in Dulbecco's modified Eagle medium (DMEM) containing 1% volume by volume percentage (v/v) insulin/transferrin/selenium culture supplement, […] dexamethasone, 2 mM L-glutamine, 1% (v/v) minimum essential medium nonessential amino acids, 1% penicillin-streptomycin. Hepatocytes were cultured for 4 days to allow extensive formation of canalicular networks between cells before experimentation and the medium was changed daily.
Sandwich-cultured hepatocytes (SCHs) were pre-incubated in 2 milliliters (ml) of warm Hank's Balanced Salt Solution (HBSS) with or without Ca^2+ at 37° C. for 15 minutes; the tight junctions of the bile canaliculi open temporally after exposure to HBSS without Ca^2+. Subsequently, cells were incubated at 37° C. for 20 minutes with 1.5 ml of standard HBSS containing silybin (10 μM), or MK 571 (50 μM) as a positive control, or baicalein (25, 15.8, 5, 1.58, 0.5, 0.16 μM), or tangeretin (25, 15.8, 5, 1.58, 0.5 μM). After 20 min, cells were washed three times with ice-cold standard HBSS. The cell samples were lysed by sonication in 1 ml of water for 5 seconds with the ultrasonic cell disruption system (SONICS & […], INC., Newtown, Conn., USA). Conjugated silybin and unconjugated (free) silybin were quantified by high-performance liquid chromatography-tandem mass spectrometry (HPLC-MS/MS). Transport function was normalized to the protein content of the hepatocytes which was evaluated by bicinchoninic acid (BCA) protein assay (Pierce Chemical, Rockford, Ill.). The biliary excretion index (BEI; %) and in vitro biliary clearance (Clbiliary; ml/min/kg) were calculated by using B-CLEAR technology (Qualyst, Inc., Research Triangle Park, N.C.) based on the following equations: […]

For the next series, the system named is Caco-2 cell monolayers. The series can be described thus: Bidirectional transport across Caco-2 cell monolayers. The conditions noted are these: for lowest effective dosage for inhibiting efflux transport of silybin: silybin 10 μM; for PA-B: human, Caco-2, 180 min; for mean efflux ratio (PB-A/PA-B): silybin alone, no inhibitor. How it is done:
Human colorectal adenocarcinoma-2 (Caco-2) cells was obtained from American Type Culture Collection (Manassas, Va.) and frozen at −80° C. For transport study, cells were cultured at 37° C./5% CO2 in Dulbecco's modified Eagle's medium supplemented with 10% fetal bovine serum, 1% nonessential amino acids, and 1% penicillin-streptomycin. […] The culture medium was changed 24 hours after seeding to remove cell debris and dead cells; after which the medium was changed on alternate days. Monolayers were used for transport assays between 21 and 23 days for Caco-2 cells. Prior to transport study, cell monolayers were certified based on internal criteria on transepithelial electrical resistance (TEER) values.
Prior to transport study, cell monolayers were certified based on our internal criteria on transepithelial electrical resistance (TEER) values, and only monolayers that met the acceptance criteria (transepithelial electrical resistance >500 Ω·cm^2 for Caco-2 cells and >200 Ω·cm^2 for MDCK cells) were selected for transport studies.
Bidirectional transport assays in human colorectal adenocarcinoma 2 (Caco-2) and Madin-Darby canine kidney II (MDCK II) was carried out by dosing substrates in assay buffer to either the apical chamber (A-to-B) or the basolateral chamber (B-to-A); cells were then incubated at 37° C. with shaking at 50 rotations per minute (rpm), and 100 μl samples were collected at 30, 60, 90, 120 and 180 minutes from the basolateral chamber to study the drug transport of AP to BL, or apical chamber to study the drug transport of BL to AP. Cell monolayers were then washed twice with ice-cold assay buffer and lysed with methanol on ice for 10 minutes. For inhibition studies, Caco-2 or MDCK II cell monolayers were pre-incubated with an inhibitor in both apical and basolateral chambers for 30 minutes, and bidirectional transport of 10 μM silybin was conducted in the absence (control) or presence of the inhibitor in both chambers. […] For fluorescence intensity detection, samples collected from AP or BL side were immediately detected in 96 well black plate by Microplate ultraviolet-visible spectroscopy (UV/VIS) spectrophotometer (TECAN infinite M200 PRO, Männedorf, Switzerland). In all cases, each determination was performed in triplicate.
The apparent permeability coefficients (Papp) were calculated as Papp=dQ/dt×1/(C“0”A) where dQ/dt (mM/sec) is the rate of permeation of the drug across the cells, C0 (millimolar (mM)) is the donor compartment concentration at time zero and A (cm^2) is the area of the cell monolayer. C0 is obtained from analysis of the dosing solution at the start experiment. Efflux Ratio (ER)=Papp (B to A)/Papp (A to B), while Papp (B−A) is the Papp value measured in the B to A direction, and Papp (A−B) is the Papp value measured in the A to B direction. 1.5 Preparation of Rat Sandwich-Cultured Hepatocytes
On the technique in general: Caco-2 monolayers are a common model of the intestinal barrier.

In another series the target is MRP2 (Homo sapiens, UniProt Q92887). In kind it is in vitro ADME. The arrangement: host or cells: MDCKII (Madin-Darby canine kidney II). The note with it: for mean net efflux ratio: Caco-2. How it is done: (§1) In all cases, each determination was performed in triplicate.
(§2) 1.5 Preparation of Rat Sandwich-Cultured Hepatocytes

In a further series the target is MDR1 (P-gp) (Homo sapiens, UniProt P08183). The series can be described thus: Transport of silybin across MDCKII-MDR1 cells. The note with it: for net efflux ratio: absence of any inhibitor. The method, then: Parental Madin-Darby canine kidney II (MDCKII), multi-drug resistance gene 1-Madin-Darby canine kidney II (MDR1-MDCKII), breast cancer resistance protein-Madin-Darby canine kidney II (BCRP-MDCKII), and multi-drug resistance protein 2-Madin-Darby canine kidney II (MRP2-MDCKII) cells were kindly provided by the Netherlands Cancer Institute (Amsterdam, Netherlands) and frozen at −80° C. The MDCKII cells were cultured at 37° C./5% CO2 in Dulbecco's modified Eagle's medium supplemented with 10% fetal bovine serum, 1% nonessential amino acids, and 2% penicillin-streptomycin. The cells were seeded on transwell inserts (Corning Inc.) at a density of 2.0×10^5 cells/cm^2 and grown for 4-5 days to form confluent monolayers. […]
Bidirectional transport assays in human colorectal adenocarcinoma 2 (Caco-2) and Madin-Darby canine kidney II (MDCK II) was carried out by dosing substrates in assay buffer to either the apical chamber (A-to-B) or the basolateral chamber (B-to-A); cells were then incubated at 37° C. with shaking at 50 rotations per minute (rpm), and 100 μl samples were collected at 30, 60, 90, 120 and 180 minutes from the basolateral chamber to study the drug transport of AP to BL, or apical chamber to study the drug transport of BL to AP. […] For fluorescence intensity detection, samples collected from AP or BL side were immediately detected in 96 well black plate by Microplate ultraviolet-visible spectroscopy (UV/VIS) spectrophotometer (TECAN infinite M200 PRO, Männedorf, Switzerland). […]
The apparent permeability coefficients (Papp) were calculated as Papp=dQ/dt×1/(C“0”A) where dQ/dt (mM/sec) is the rate of permeation of the drug across the cells, C0 (millimolar (mM)) is the donor compartment concentration at time zero and A (cm^2) is the area of the cell monolayer. […] Efflux Ratio (ER)=Papp (B to A)/Papp (A to B), while Papp (B−A) is the Papp value measured in the B to A direction, and Papp (A−B) is the Papp value measured in the A to B direction. […]

Another series has as its system MDCKII-WT cells. In kind it is in vitro ADME, canine. The conditions noted are these: for mean net efflux ratio: MDCK. The method, then:
as §1, §2

Chain of MRP2 (Q92887 whole entry): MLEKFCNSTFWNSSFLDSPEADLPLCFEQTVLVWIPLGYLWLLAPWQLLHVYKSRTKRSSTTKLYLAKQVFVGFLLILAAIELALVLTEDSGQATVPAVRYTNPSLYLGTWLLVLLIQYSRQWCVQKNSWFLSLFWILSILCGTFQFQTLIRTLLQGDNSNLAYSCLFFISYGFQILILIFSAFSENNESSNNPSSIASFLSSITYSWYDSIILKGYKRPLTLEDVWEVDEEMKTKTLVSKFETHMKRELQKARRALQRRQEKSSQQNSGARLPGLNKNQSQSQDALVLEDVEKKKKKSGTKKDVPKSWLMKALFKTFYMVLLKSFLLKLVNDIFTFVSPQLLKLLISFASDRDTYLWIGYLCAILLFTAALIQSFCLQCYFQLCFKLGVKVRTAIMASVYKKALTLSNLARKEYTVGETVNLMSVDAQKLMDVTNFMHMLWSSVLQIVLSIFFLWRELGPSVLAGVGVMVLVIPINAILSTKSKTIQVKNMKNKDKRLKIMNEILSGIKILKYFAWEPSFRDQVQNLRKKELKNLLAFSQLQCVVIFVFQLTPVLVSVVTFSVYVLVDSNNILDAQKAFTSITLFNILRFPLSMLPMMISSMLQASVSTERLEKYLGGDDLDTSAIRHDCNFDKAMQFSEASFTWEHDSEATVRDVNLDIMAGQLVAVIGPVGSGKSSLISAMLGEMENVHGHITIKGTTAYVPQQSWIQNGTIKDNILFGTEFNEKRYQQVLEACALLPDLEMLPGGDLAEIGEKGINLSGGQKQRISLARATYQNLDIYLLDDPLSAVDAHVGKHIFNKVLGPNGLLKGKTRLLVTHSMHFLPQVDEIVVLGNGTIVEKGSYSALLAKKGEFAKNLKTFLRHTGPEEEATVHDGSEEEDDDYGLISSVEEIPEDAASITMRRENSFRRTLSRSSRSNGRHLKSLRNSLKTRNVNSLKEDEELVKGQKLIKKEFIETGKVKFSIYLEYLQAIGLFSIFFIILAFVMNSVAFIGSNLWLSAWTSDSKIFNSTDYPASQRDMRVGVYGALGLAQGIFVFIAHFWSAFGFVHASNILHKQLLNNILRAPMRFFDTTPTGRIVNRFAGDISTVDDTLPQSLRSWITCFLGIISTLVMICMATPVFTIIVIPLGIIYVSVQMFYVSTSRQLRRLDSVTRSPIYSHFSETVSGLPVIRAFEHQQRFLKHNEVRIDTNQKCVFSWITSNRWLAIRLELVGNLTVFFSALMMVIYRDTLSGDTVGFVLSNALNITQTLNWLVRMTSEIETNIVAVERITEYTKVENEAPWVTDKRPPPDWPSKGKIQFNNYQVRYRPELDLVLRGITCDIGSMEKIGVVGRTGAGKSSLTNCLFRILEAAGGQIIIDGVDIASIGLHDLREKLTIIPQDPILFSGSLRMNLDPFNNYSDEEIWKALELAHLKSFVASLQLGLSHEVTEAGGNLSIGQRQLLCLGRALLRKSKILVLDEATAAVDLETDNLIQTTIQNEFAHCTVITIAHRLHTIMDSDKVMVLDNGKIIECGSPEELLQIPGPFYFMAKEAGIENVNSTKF
Chain of MDR1 (P-gp) (P08183 whole entry): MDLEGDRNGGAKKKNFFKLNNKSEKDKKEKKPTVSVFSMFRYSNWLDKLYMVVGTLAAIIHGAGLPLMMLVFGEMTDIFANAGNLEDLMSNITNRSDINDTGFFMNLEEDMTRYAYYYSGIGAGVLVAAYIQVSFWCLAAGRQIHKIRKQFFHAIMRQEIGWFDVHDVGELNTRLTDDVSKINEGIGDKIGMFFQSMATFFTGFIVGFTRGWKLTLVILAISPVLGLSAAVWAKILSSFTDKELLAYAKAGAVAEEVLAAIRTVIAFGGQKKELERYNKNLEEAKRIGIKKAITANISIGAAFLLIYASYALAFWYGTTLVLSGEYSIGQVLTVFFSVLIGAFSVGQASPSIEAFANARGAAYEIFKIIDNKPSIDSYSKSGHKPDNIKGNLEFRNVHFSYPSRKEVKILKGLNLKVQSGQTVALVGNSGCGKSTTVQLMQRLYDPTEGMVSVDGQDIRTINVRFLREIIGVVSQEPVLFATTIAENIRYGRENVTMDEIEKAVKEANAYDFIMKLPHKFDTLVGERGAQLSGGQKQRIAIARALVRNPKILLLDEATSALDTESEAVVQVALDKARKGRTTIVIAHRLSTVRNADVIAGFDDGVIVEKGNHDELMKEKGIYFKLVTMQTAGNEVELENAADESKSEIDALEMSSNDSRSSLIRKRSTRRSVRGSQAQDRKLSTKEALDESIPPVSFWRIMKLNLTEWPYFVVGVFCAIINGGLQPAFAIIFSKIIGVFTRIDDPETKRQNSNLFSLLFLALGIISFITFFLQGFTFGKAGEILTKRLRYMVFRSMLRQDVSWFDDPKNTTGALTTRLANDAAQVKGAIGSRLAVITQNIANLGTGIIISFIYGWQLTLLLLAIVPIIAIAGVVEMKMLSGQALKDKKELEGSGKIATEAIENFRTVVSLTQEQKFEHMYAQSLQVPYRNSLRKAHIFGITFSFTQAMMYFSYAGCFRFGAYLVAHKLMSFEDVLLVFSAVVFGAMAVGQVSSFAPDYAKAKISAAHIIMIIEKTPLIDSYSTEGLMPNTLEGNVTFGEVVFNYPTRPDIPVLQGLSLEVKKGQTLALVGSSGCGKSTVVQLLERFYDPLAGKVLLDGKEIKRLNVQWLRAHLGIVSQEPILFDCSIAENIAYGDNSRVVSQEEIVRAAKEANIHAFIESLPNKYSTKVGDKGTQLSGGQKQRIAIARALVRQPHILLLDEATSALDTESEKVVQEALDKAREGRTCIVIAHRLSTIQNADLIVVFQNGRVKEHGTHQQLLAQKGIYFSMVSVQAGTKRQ

As to `O=c1cc(-c2ccccc2)oc2cc(O)c(O)c(O)c12` [baicalein], the “reduction of biliary excretion of silybin” value in series [1] (baicalein at 25 μM, silybin 10 μM) is recorded as about 75%. For the same molecule, the “effect on efflux of silybin” value with Caco-2 cell monolayers (5 μM baicalein, silybin at 40 μM) was “did not affect the efflux of silybin”; in the series on Caco-2 cell monolayers (5 μM baicalein, silybin concentration below 30 μM), “significantly inhibited the efflux of silybin”. For the same molecule, in the series with Caco-2 cell monolayers, the “lowest effective dosage for inhibiting efflux transport of silybin” value was found to be 0.5 µM.

Consider `COc1cc([C@H]2Oc3cc([C@H]4Oc5cc(O)cc(O)c5C(=O)[C@@H]4O)ccc3O[C@@H]2CO)ccc1O` [silybin A], for which the “mean BEI (biliary excretion index), free silybin” value in series [1] came to 35±4%. Besides, the intrinsic biliary clearance in series [1] (rat, hepatocytes) is given as 2.1±0.2 μl/(min·mg protein). The PA-B in the series with Caco-2 cell monolayers is 0.47±0.03×10^−6 cm/s. Moreover, the “mean efflux ratio (PB-A/PA-B)” value with Caco-2 cell monolayers was 5.05. Moreover, the entries for the “mean net efflux ratio” value at MRP2 and with MDCKII-WT cells were 3.06 and 1.01, respectively. Besides, on MDR1 (P-gp), the net efflux ratio was 1.39.

As for `COc1cc([C@@H]2Oc3cc([C@H]4Oc5cc(O)cc(O)c5C(=O)[C@@H]4O)ccc3O[C@H]2CO)ccc1O` [silybin B], the “mean BEI (biliary excretion index), free silybin” value in series [1] worked out at 33±1%. The intrinsic biliary clearance in series [1] (rat, hepatocytes) is recorded as 2.5±0.4 μl/(min·mg protein). Also, the PA-B in the series on Caco-2 cell monolayers is 0.45±0.02×10^−6 cm/s. In addition, the “mean efflux ratio (PB-A/PA-B)” value with Caco-2 cell monolayers is given as 4.61. Further, the “mean net efflux ratio” value was determined as 3.30 at MRP2 and 0.99 in the series on MDCKII-WT cells. At MDR1 (P-gp), the net efflux ratio stood at 1.20.

Turning to `COc1cc(C2Oc3cc([C@H]4Oc5cc(O)cc(O)c5C(=O)[C@@H]4O)ccc3OC2CO)ccc1O` (stereo partly drawn) [silybin], on MRP2 (dog, 180 min, 10 µM), the MRP2 substrate status result is given as “is a MRP2 substrate”. The “MDR1 (P-gp) substrate status” value at MDR1 (P-gp) (dog, MDCK-MDR1, 180 min, 10 µM) is “is not a substrate for MDR1 (P-gp) efflux transporter”. Moreover, in the series with MDCKII-WT cells (Caco-2), the “permeability of silybin in absence or presence of P-gp, MRP and BCRP efflux inhibitors” value is on record as “no significant difference”.

As for `COc1ccc(-c2cc(=O)c3c(OC)c(OC)c(OC)c(OC)c3o2)cc1` [tangeretin], the “effect on biliary clearance of silybin” value in series [1] (rat, hepatocytes) was “inhibited the biliary clearance of silybin”. For the same molecule, the “effect on efflux of silybin” value in the series on Caco-2 cell monolayers (0.5 μM tangeretin, silybin 2.5 to 40 μM) is listed as “Significant inhibitory effects”. Further, the “lowest effective dosage for inhibiting efflux transport of silybin” value in the series with Caco-2 cell monolayers was found to be 0.05 µM.

Source of the values: US10265298B2, “Method of increasing the bioavailability of silybin” (Macau University of Science and Technology, priority 2017, dated 2019).
